Data on one compound can be found in patent US20130059783A1, “COMPOSITIONS AND METHODS FOR EXPANDING BFU-E CELLS” (priority 2010, published 2013).

One test deals with BFU-E cells. Nature of the test: Colony forming assays of sorted BFU-E fractions (Table S2). The test is classed as cell-based, mouse. The source says:
Separation of BFU-E and CFU-E cells by expression of CD71, CD24a or both CD71 and CD24a. C-kit positive BFU-E and CFU-E cells were sorted from FLEP cells based on expression of CD71, CD24a or both CD71 and CD24a. In all experiments the BFU-E fraction was the subset of c-kit^positive FLEP cells with the 10% lowest expression of CD71 and/or CD24a, while the CFU-E fraction was the subset with 20% highest expression of CD71 and/or CD24a. Sorted BFU-E and CFU-E populations were subjected to colony forming assays under two different conditions. […] The number of CFU-E colonies (±standard deviation) is shown. The sorted “BFU-E” populations mostly formed small CFU-E clusters rather than single CFU-E colonies in these assays. These CFU-E clusters are formed by precursors to CFU-Es and were scored separately as multi-CFU-Es. The number of “multi-CFU-Es” is not shown since these cells likely represent the same cells as those forming small BFU-E colonies.
The potential of the sorted cells to form large BFU-E, small BFU-E, CFU-G/M/Mk, and CFU-GEMM colonies (±standard deviation) was determined by a second assay in methyl cellulose containing 10U Epo, 20 nM IL-3, 20 nM IL-6 and 50 nM SCF per mL, and was scored at day 8-9. […] To determine the effect of DMOG, colony assays of sorted BFU-E (CD71 and CD24a^10% low) cells were also performed in the presence of 333 μM DMOG. In agreement with the finding that DMOG enhances BFU-E self-renewal BFU-E colonies were larger with a more immature appearance in the presence of DMOG and Dex. Therefore, in the presence of DMOG and Dex most BFU-E colonies were scored as “large BFU-Es.”
No GEMM colonies were formed (Table S2).
Colonies were scored after 3 days. […] The number of hemoglobinized early BFU-E and late BFU-E colonies was determined after 8-9 days following staining with 2,7-Diaminofluorene (Sigma Chemical, St. Louis, Mo.).

Test [1] has as its system miRNA expression in BFU-E cells. Nature of the test: Small RNA (miRNA) sequencing of BFU-E cells cultured 4 hours with or without Dex. Type of test: cell-based, mouse. The note with it: 100 nM Dex. From the text: FIGS. 2A-2B. The effect of glucocorticoids on miRNA and mRNA expression in BFU-E cells determined by next generation sequencing. […] Both mRNAs and miRNAs were subjected to Illumina deep sequencing. […] (B) A plot similar to that in A for expression of individual mRNAs. mRNA expression was normalized using the RPKM method, which determines the relative expression of each gene to all expressed genes by giving each gene an RPKM count (number of uniquely aligning reads per kb exon per million total reads).
B) Percent of total miRNA expression of the 20 highest expressed miRNAs. C) Percent of total miRNA expression of the 20 highest expressed miRNA-families.
Differences in miRNA expression were determined as described previously (Baek et al., 2008). […] Since several miRNAs contain the same seed sequence and therefore target the same group of mRNAs we also compared changes in expression of miRNA families.
Small RNA sequencing was performed essentially as described (Grimson et al., 2008). […] The adaptor sequence was stripped and aligned to mouse NCBI build 37 (mm9) using ELAND. Reads mapping to the known microRNA hairpins were used for downstream analysis. Reads mapping to miRNA with more than one known copy in the genome were divided equally between the different loci. miRNA analysis methods to compute miRNA expression counts were derived from previously published methods (Baek et al., 2008).

Where [2] appears, read: CD24a 10% low cells, 100 nM Dex.
Where [3] appears, read: CD71/CD24a 10% low cells, 100 nM Dex and/or 333 μM DMOG.
Setting [4] is: purified CD71 10% low cells, with Dex.

The structures appear in SMILES notation.

`C[C@@H]1C[C@H]2[C@@H]3CCC4=CC(=O)C=C[C@]4(C)[C@@]3(F)[C@@H](O)C[C@]2(C)[C@@]1(O)C(=O)CO` [Dex, dexamethasone]: in the test on BFU-E cells (setting [2]), the CFU-E colonies is reported as 96 (±23) colonies per 1000 plated cells, the CFU-G/M/Meg colonies is listed as 19 (±6) colonies per 1000 plated cells, the GEMM colonies is 0.8 (±2) colonies per 1000 plated cells and the “large BFU-E colonies” value is recorded as 178 (±28) colonies per 1000 plated cells. In addition, the “small BFU-E colonies” value with BFU-E cells (setting [2]) is 336 (±27) colonies per 1000 plated cells. Besides, in the test on BFU-E cells (CD71 10% low cells, 100 nM Dex), the CFU-E colonies is on record as 66 (±28) colonies per 1000 plated cells, the CFU-G/M/Meg colonies was 20 (±21) colonies per 1000 plated cells, the GEMM colonies is 0 colonies per 1000 plated cells and the “large BFU-E colonies” value is recorded as 222 (±84) colonies per 1000 plated cells. Moreover, in the test on BFU-E cells (CD71 10% low cells, 100 nM Dex), the “small BFU-E colonies” value is on record as 289 (±85) colonies per 1000 plated cells. Also, in the test on BFU-E cells (setting [3]), the CFU-E colonies is reported as 33 (±10) colonies per 1000 plated cells, the CFU-G/M/Meg colonies is on record as 7 (±2) colonies per 1000 plated cells, the GEMM colonies was 0 colonies per 1000 plated cells and the “large BFU-E colonies” value is reported as 412 (±23) colonies per 1000 plated cells. Further, in the test on BFU-E cells (setting [3]), the “small BFU-E colonies” value is recorded as 251 (±40) colonies per 1000 plated cells. In the test with BFU-E cells (setting [4]), the “Cells forming CFU-E colonies” value came out at 6.6%, the “Cells forming CFU-G/M/Meg colonies” value came out at 2.0%, the “Cells forming early BFU-Es” value is 22% and the “Cells forming late BFU-E colonies” value was 29%. Besides, in test [1], the “Increase in expression of the 100 highest expressed miRNAs” value was not above 50% and the “Increase in miR-451 expression” value turned out to be 49%.
